Calls of active or inactive are those of the source. The calls are words filed in the database; no cut-off is given here. Non-standard residues stand in square brackets, D forms with d. Residues, ends and D or L forms follow the SMILES beside them. *: point of attachment. Cbz = O=C(OCc1ccccc1)*; Ac3c = NC1(C(=O)O)CC1

The results in this text go back to ChEMBL document CHEMBL4177620, “A comparative study of warheads for design of cysteine protease inhibitors” (Bioorg Med Chem Lett, 2017).

One series addresses Cruzipain (Trypanosoma cruzi, UniProt P25779). In words: Inhibition of recombinant Trypanosoma cruzi cruzain using Z-phe-Arg-7-amido-4-methylcoumarin as substrate by fluorometric method.
Series [1] addresses Cruzipain (Trypanosoma cruzi) (UniProt P25779). In words: Reversible inhibition of recombinant Trypanosoma cruzi cruzain using Z-phe-Arg-7-amido-4-methylcoumarin as substrate by fluorometric method.
Another series relates to Trypanosoma cruzi. In words: Antitrypanosomal activity against amastigote form of Trypanosoma cruzi Y infected in human U2OS cells. Type of series: functional, organism-based.
Series [2] is described as follows: Cytotoxicity against human U2OS cells. It is filed as cell-based.
The target of series [3] is Cruzipain (Trypanosoma cruzi) (UniProt P25779). Put plainly: Inhibition of recombinant Trypanosoma cruzi cruzain assessed as dissociation rate constant using Z-phe-Arg-7-amido-4-methylcoumarin as substrate by fluorometric method.
Chain of Cruzipain (Trypanosoma cruzi) (P25779 123-467 limits assumed): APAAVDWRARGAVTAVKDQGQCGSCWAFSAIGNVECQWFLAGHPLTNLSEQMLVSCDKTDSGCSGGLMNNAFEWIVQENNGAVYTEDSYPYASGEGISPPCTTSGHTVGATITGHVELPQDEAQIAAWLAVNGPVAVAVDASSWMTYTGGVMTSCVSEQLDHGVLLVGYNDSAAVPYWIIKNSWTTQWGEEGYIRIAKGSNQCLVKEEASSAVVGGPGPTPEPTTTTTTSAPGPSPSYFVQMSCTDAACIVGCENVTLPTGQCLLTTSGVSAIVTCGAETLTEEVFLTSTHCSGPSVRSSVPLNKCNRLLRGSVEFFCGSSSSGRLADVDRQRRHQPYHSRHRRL
Series [4] has the same target. In words: Ratio of Kinact to Ki for recombinant Trypanosoma cruzi cruzain using Z-phe-Arg-7-amido-4-methylcoumarin as substrate.
For series [5] the target is unchanged. In words: Irreversible inhibition of recombinant Trypanosoma cruzi cruzain using Z-phe-Arg-7-amido-4-methylcoumarin as substrate by fluorometric method.

Chain of Cruzipain (P25779 whole entry): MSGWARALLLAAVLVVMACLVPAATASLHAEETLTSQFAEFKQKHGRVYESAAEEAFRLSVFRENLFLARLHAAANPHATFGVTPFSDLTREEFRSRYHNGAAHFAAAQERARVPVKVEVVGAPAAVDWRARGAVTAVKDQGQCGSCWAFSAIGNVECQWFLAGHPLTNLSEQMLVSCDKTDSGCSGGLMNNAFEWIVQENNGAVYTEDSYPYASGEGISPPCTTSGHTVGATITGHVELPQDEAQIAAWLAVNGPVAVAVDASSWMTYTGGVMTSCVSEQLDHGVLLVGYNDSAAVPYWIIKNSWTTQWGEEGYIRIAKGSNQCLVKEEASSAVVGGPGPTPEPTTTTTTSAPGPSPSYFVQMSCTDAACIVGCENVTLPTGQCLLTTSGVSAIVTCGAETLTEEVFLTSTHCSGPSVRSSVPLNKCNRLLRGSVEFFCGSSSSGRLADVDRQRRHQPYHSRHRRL

As to `O=CC1(NC(=O)[C@H](Cc2ccccc2)NC(=O)OCc2ccccc2)CC1` (Cbz-Phe-[Ac3c]-aldehyde), on Cruzipain, the Ki was 3.98 µM.
`CCN(CC)C(=O)/C=C/C1(NC(=O)[C@H](Cc2ccccc2)NC(=O)OCc2ccccc2)CC1`: the inhibition constant Ki at Cruzipain is 200 µM. Moreover, the inhibition result in series [1] was “Active”.
`CC(C)C[C@H](NC(=O)c1cc(C(C)(C)C)nn1C)C(=O)N(C)N(C)C#N`: it took 12.6 µM to reach a half-maximal effect in the series on Trypanosoma cruzi (EC50).
Consider `CNC(=O)/C=C/C1(NC(=O)[C@H](Cc2ccccc2)NC(=O)OCc2ccccc2)CC1`, for which, at Cruzipain, the Ki was 398 µM. The inhibition result in series [1] was “Active”.
The molecule `Cc1coc(NC(=O)[C@H](Cc2ccccc2)NC(=O)OCc2ccccc2)n1` showed an EC50 with Trypanosoma cruzi of 39.8 µM. Moreover, the CC50 in series [2] was more than 100 µM. The Ki on Cruzipain is 25.1 µM.
For the molecule `CN(C#N)N(C)C(=O)[C@H](Cc1ccccc1)NC(=O)c1cc(C(C)(C)C)nn1C`, in series [3], the koff turned out to be 0.012 s⁻¹. Further, on Cruzipain, the Ki is 0.00158 µM.
Regarding `CC(C)C[C@H](NC(=O)OC(C)(C)C)C(=O)N(C)N(C)C#N`, the EC50 in the series with Trypanosoma cruzi is 39.8 µM. In addition, in series [2], half-maximal cytotoxicity (CC50) was put at 50.1 µM. Also, in series [3], the koff amounted to 0.0053 s⁻¹. Also, the Ki at Cruzipain was 0.01 µM. The inhibition entry in series [1] was “Active”.
In the series with Trypanosoma cruzi, `N#CCNC(=O)[C@H](Cc1ccccc1)NC(=O)OCc1ccccc1` showed an EC50 of more than 100 µM. Moreover, in series [2], the CC50 is more than 100 µM. Besides, the inhibition result in series [1] is “Active”.
In the case of `CCOC(=O)/C=C/C1(NC(=O)[C@H](Cc2ccccc2)NC(=O)OCc2ccccc2)CC1`, the Ki at Cruzipain was 126 µM. In series [1], the inhibition result was “Active”.
On to `CCOC(=O)/C=C\CNC(=O)[C@H](Cc1ccccc1)NC(=O)OCc1ccccc1`, for which the Ki on Cruzipain is 6.31 µM. Besides, the inhibition result in series [1] is “Active”.
The corresponding values for `O=CCNC(=O)[C@H](Cc1ccccc1)NC(=O)OCc1ccccc1` (Cbz-Phe-Gly-aldehyde) are 0.00794 µM and “Active”.
For `CCOC(=O)/C=C/CNC(=O)[C@H](Cc1ccccc1)NC(=O)OCc1ccccc1`, the Ratio in series [4] is 9.8 ×10³ /s/M. Besides, the Ki at Cruzipain is 1.58 µM. Also, the inhibition result in series [5] was “Active”.
`O=C(N[C@@H](Cc1ccccc1)C(=O)Nc1cnoc1)OCc1ccccc1` showed an EC50 with Trypanosoma cruzi of more than 100 µM. The CC50 in series [2] is more than 100 µM. Moreover, on Cruzipain, the Ki was 10 µM.
With `CN(C#N)N(C)C(=O)[C@H](Cc1ccccc1)NC(=O)OCc1ccccc1`, the response with Trypanosoma cruzi was half-maximal at 5.01 µM (EC50). Moreover, the CC50 in series [2] is 10 µM. For the same molecule, the koff in series [3] was determined as 0.011 s⁻¹. On Cruzipain, the Ki was 0.002 µM. Further, the inhibition entry in series [1] is “Active”.
Take `N#CC1(NC(=O)[C@H](Cc2ccccc2)NC(=O)OCc2ccccc2)CC1`: the concentration giving a half-maximal response (EC50) with Trypanosoma cruzi is more than 100 µM. The same molecule had a CC50 in series [2] of more than 100 µM. Besides, the Ki on Cruzipain was 6.31 µM.
For `O=C(N[C@@H](Cc1ccccc1)C(=O)NCC=NO)OCc1ccccc1`, the Ki on Cruzipain was 0.1 µM. For the same molecule, the inhibition result in series [1] is “Active”.
